Values joined by “and” are separate entries in the source; they are usually repeats but may differ in a detail not shown here. Equal values may be shown once.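 Values below derive from 48-hour exposures of cells grown in 96-well plates, with endpoints linearly interpolated between the two concentrations bracketing the appropriate inhibition level. GI50: concentration for 50% inhibition of growth.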 Active and inactive are the calls of the source. Cut-off read from the data, not from the text of the source: active = GI50 up to about 1.1 µM and inactive = higher.
What was measured:
Assay in all cases: DTP human tumour cell line panel, 48 h
HCT-15 = tested on: HCT-15
HL-60 = tested on: HL-60
Malme-3M = tested on: Malme-3M
CCRF-CEM = tested on: CCRF-CEM
SK-MEL-2 = tested on: SK-MEL-2
OVCAR-3 = tested on: OVCAR-3
SW-620 = tested on: SW-620
HCC 2998 = tested on: HCC 2998
UACC-257 = tested on: UACC-257
SN12C = tested on: SN12C
SK-OV-3 = tested on: SK-OV-3
MDA-MB-435 = tested on: MDA-MB-435
Hs-578T = tested on: Hs-578T
OVCAR-4 = tested on: OVCAR-4
LOX IMVI = tested on: LOX IMVI
OVCAR-8 = tested on: OVCAR-8
EKVX = tested on: EKVX
RXF 393 = tested on: RXF 393
HT-29 = tested on: HT-29
MOLT-4 = tested on: MOLT-4
K562 = tested on: K562
ACHN = tested on: ACHN
OVCAR-5 = tested on: OVCAR-5
NCI-H23 = tested on: NCI-H23
SK-MEL-5 = tested on: SK-MEL-5
DU-145 = tested on: DU-145
786-0 = tested on: 786-0
MDA-MB-231 = tested on: MDA-MB-231
SR = tested on: SR
UACC-62 = tested on: UACC-62
COLO 205 = tested on: COLO 205
M14 = tested on: M14
SK-MEL-28 = tested on: SK-MEL-28
MDA-N = tested on: MDA-N
NCI-H226 = tested on: NCI-H226
A498 = tested on: A498
SNB-19 = tested on: SNB-19
NCI-H522 = tested on: NCI-H522
SF-539 = tested on: SF-539
U-251 = tested on: U-251
RPMI-8226 = tested on: RPMI-8226
CAKI-1 = tested on: CAKI-1
PC-3 = tested on: PC-3
IGROV-1 = tested on: IGROV-1
A549 = tested on: A549
TK-10 = tested on: TK-10
NCI-H460 = tested on: NCI-H460
UO-31 = tested on: UO-31
HOP-92 = tested on: HOP-92
NCI/ADR-RES = tested on: NCI/ADR-RES
KM12 = tested on: KM12
SF-295 = tested on: SF-295
HCT-116 = tested on: HCT-116
T47D = tested on: T47D
HOP-62 = tested on: HOP-62
SF-268 = tested on: SF-268
MCF7 = tested on: MCF7
SNB-75 = tested on: SNB-75

## CCOC(=O)/C(C(=S)NC)=C(/N)N1CCCC1
HCT-15
  GI50: > 100 µM
HL-60
  GI50: > 100 µM (inactive)
Malme-3M
  GI50: > 100 µM (inactive)
CCRF-CEM
  GI50: > 100 µM (inactive)
SK-MEL-2
  GI50: > 100 µM (inactive)
OVCAR-3
  GI50: > 100 µM (inactive)
SW-620
  GI50: > 100 µM (inactive)
HCC 2998
  GI50: > 100 µM (inactive)
UACC-257
  GI50: > 100 µM (inactive)
SN12C
  GI50: > 100 µM (inactive)
SK-OV-3
  GI50: > 100 µM (inactive)
MDA-MB-435
  GI50: > 100 µM (inactive)
Hs-578T
  GI50: > 100 µM (inactive)
OVCAR-4
  GI50: > 100 µM (inactive)
LOX IMVI
  GI50: > 100 µM (inactive)
OVCAR-8
  GI50: > 100 µM (inactive)
EKVX
  GI50: > 100 µM (inactive)
RXF 393
  GI50: > 100 µM (inactive)
HT-29
  GI50: > 100 µM (inactive)
MOLT-4
  GI50: > 100 µM (inactive)
K562
  GI50: > 100 µM (inactive)
ACHN
  GI50: > 100 µM (inactive)
OVCAR-5
  GI50: > 100 µM (inactive)
NCI-H23
  GI50: > 100 µM (inactive)
SK-MEL-5
  GI50: > 100 µM (inactive)
DU-145
  GI50: > 100 µM (inactive)
786-0
  GI50: > 100 µM (inactive)
MDA-MB-231
  GI50: > 100 µM (inactive)
SR
  GI50: > 100 µM (inactive)
UACC-62
  GI50: > 100 µM (inactive)
COLO 205
  GI50: > 100 µM (inactive)
M14
  GI50: > 100 µM (inactive)
SK-MEL-28
  GI50: > 100 µM (inactive)
MDA-N
  GI50: > 100 µM (inactive)
NCI-H226
  GI50: > 100 µM (inactive)
A498
  GI50: > 100 µM (inactive)
SNB-19
  GI50: > 100 µM (inactive)
NCI-H522
  GI50: > 100 µM (inactive)
SF-539
  GI50: > 100 µM (inactive)
U-251
  GI50: > 100 µM (inactive)
RPMI-8226
  GI50: > 100 µM (inactive)
CAKI-1
  GI50: 77.1 µM (inactive)
PC-3
  GI50: > 100 µM (inactive)
IGROV-1
  GI50: > 100 µM (inactive)
A549
  GI50: > 100 µM (inactive)
TK-10
  GI50: > 100 µM (inactive)
NCI-H460
  GI50: > 100 µM (inactive)
UO-31
  GI50: 71.6 µM (inactive)
HOP-92
  GI50: > 100 µM (inactive)
NCI/ADR-RES
  GI50: > 100 µM (inactive)
KM12
  GI50: > 100 µM (inactive)
SF-295
  GI50: > 100 µM (inactive)
HCT-116
  GI50: > 100 µM (inactive)
T47D
  GI50: > 100 µM (inactive)
HOP-62
  GI50: > 100 µM (inactive)
SF-268
  GI50: > 100 µM (inactive)

## OCC(O)C(O)C(O)C(/C=N\Nc1ncnc2c(Br)cc(Br)cc12)=N/Nc1ncnc2c(Br)cc(Br)cc12 (centres undefined)
Malme-3M
  GI50: 6.4 µM (inactive) and 3.76 µM (inactive)
SK-MEL-2
  GI50: 5.41 µM (inactive) and 3.27 µM (inactive)
OVCAR-3
  GI50: 4.28 µM (inactive) and 2.88 µM (inactive)
SW-620
  GI50: 5.46 µM (inactive)
UACC-257
  GI50: 8.15 µM (inactive) and 12.9 µM (inactive)
OVCAR-4
  GI50: 2.81 µM (inactive) and 3.27 µM (inactive)
LOX IMVI
  GI50: 6.43 µM (inactive) and 10.1 µM (inactive)
HT-29
  GI50: 4.84 µM (inactive) and 4.55 µM (inactive)
K562
  GI50: 5.07 µM (inactive) and 5.15 µM (inactive)
ACHN
  GI50: 5.58 µM (inactive) and 6.35 µM (inactive)
SK-MEL-5
  GI50: 3.45 µM (inactive) and 4.71 µM (inactive)
DU-145
  GI50: 5.9 µM (inactive) and 3.42 µM (inactive)
MCF7
  GI50: 1.24 µM (inactive) and 817 nM (active)
MDA-MB-231
  GI50: 3.67 µM (inactive) and 3.79 µM (inactive)
SR
  GI50: 3.4 µM (inactive) and 5.25 µM (inactive)
COLO 205
  GI50: 3.17 µM (inactive) and 3.52 µM (inactive)
M14
  GI50: 8.2 µM (inactive) and 8.38 µM (inactive)
MDA-N
  GI50: 7.46 µM (inactive) and 6.08 µM (inactive)
NCI-H226
  GI50: 3.58 µM (inactive)
SF-539
  GI50: 8.85 µM (inactive)
U-251
  GI50: 2.49 µM (inactive) and 4.46 µM (inactive)
CAKI-1
  GI50: 4.85 µM (inactive) and 6.34 µM (inactive)
IGROV-1
  GI50: 4.71 µM (inactive) and 2.49 µM (inactive)
T47D
  GI50: 2.57 µM (inactive) and 2.62 µM (inactive)
SF-268
  GI50: 3.78 µM (inactive) and 3.15 µM (inactive)

## Cc1cc2nn(C3CCCO3)nc2cc1C (centres undefined)
HCT-15
  GI50: > 100 µM
SNB-75
  GI50: 69.3 µM (inactive)
Malme-3M
  GI50: > 100 µM (inactive)
CCRF-CEM
  GI50: > 100 µM (inactive)
SK-MEL-2
  GI50: > 100 µM (inactive)
OVCAR-3
  GI50: > 100 µM (inactive)
HCC 2998
  GI50: > 100 µM (inactive)
UACC-257
  GI50: > 100 µM (inactive)
SN12C
  GI50: > 100 µM (inactive)
SK-OV-3
  GI50: > 100 µM (inactive)
MDA-MB-435
  GI50: > 100 µM (inactive)
Hs-578T
  GI50: > 100 µM (inactive)
OVCAR-4
  GI50: > 100 µM (inactive)
OVCAR-8
  GI50: > 100 µM (inactive)
EKVX
  GI50: > 100 µM (inactive)
RXF 393
  GI50: > 100 µM (inactive)
HT-29
  GI50: > 100 µM (inactive)
MOLT-4
  GI50: > 100 µM (inactive)
K562
  GI50: > 100 µM (inactive)
OVCAR-5
  GI50: > 100 µM (inactive)
NCI-H23
  GI50: > 100 µM (inactive)
SK-MEL-5
  GI50: > 100 µM (inactive)
DU-145
  GI50: > 100 µM (inactive)
MCF7
  GI50: > 100 µM (inactive)
786-0
  GI50: > 100 µM (inactive)
MDA-MB-231
  GI50: > 100 µM (inactive)
SR
  GI50: > 100 µM (inactive)
UACC-62
  GI50: > 100 µM (inactive)
COLO 205
  GI50: > 100 µM (inactive)
M14
  GI50: > 100 µM (inactive)
MDA-N
  GI50: > 100 µM (inactive)
NCI-H226
  GI50: > 100 µM (inactive)
A498
  GI50: > 100 µM (inactive)
NCI-H522
  GI50: > 100 µM (inactive)
SF-539
  GI50: > 100 µM (inactive)
U-251
  GI50: > 100 µM (inactive)
CAKI-1
  GI50: > 100 µM (inactive)
PC-3
  GI50: > 100 µM (inactive)
IGROV-1
  GI50: > 100 µM (inactive)
A549
  GI50: > 100 µM (inactive)
TK-10
  GI50: > 100 µM (inactive)
NCI-H460
  GI50: > 100 µM (inactive)
NCI/ADR-RES
  GI50: > 100 µM (inactive)
SF-295
  GI50: > 100 µM (inactive)
HCT-116
  GI50: > 100 µM (inactive)
T47D
  GI50: > 100 µM (inactive)
HOP-62
  GI50: > 100 µM (inactive)
SF-268
  GI50: > 100 µM (inactive)
